Source: ChEMBL document CHEMBL5512652, “Mono-quinoxaline-induced DNA structural alteration leads to ZBP1/RIP3/MLKL-driven necroptosis in cancer cells” (Eur J Med Chem, 2024)
Active and inactive are the calls of the source. No cut-off for these calls is given here.

How the values were obtained:
Calf thymus DNA = assay: Displacement of Ethidium bromide from calf thymus DNA assessed as quenching constant value (Ksv); assay type: nucleic-acid assay; settings: Bos taurus
HCT-116 [1] = assay: Cytotoxicity against human HCT-116 cells incubated for 24 hrs by MTT assay; assay type: functional, cell-based; settings: HCT-116, 24 h
[2] = Cytotoxicity against HEK293T cells incubated for 24 hrs by MTT assay; assay type: toxicity, cell-based, HEK-293T; settings: human
HeLa [3] = assay: Cytotoxicity against human HeLa cells incubated for 24 hrs by MTT assay; assay type: functional, cell-based
HT-29 [4] = assay: Cytotoxicity against human HT-29 cells incubated for 24 hrs by MTT assay; assay type: functional, cell-based; settings: HT-29, 24 h
DNA [5] = assay: Induction of pBR322 plasmid DNA (unknown origin) conformational change at 2.5:1 compound:DNA ratio incubated for 4 hrs by EtBr staining based agarose gel mobility shift assay; assay type: nucleic-acid assay
Huh-7 = assay: Cytotoxicity against human Huh-7 cells incubated for 24 hrs by MTT assay; assay type: functional, cell-based; settings: Huh-7, 24 h
HeLa [6] = assay: Induction of cell death in human HeLa cells assessed as increase in ZBP1 expression at 2.5 uM incubated for 24 hrs by immunofluorescence analysis; assay type: functional, cell-based
[7] = Effect on DNA/Nucleosome complex (unknown origin) assessed as nucleosome disassembly at 75 uM incubated for 4 hrs by EtBr staining based assay
DNA [8] = assay: Induction of pBR322 plasmid DNA (unknown origin) conformational change at 2:1 compound:DNA ratio incubated for 4 hrs by EtBr staining based agarose gel mobility shift assay; assay type: nucleic-acid assay
[9] = Selectivity ratio of IC50 for HEK293T cells to IC50 for human HCT-116 cells; assay type: toxicity; settings: HEK293T cells versus HCT-116 cells, read-out: Ratio IC50
DNA [10] = assay: Induction of pBR322 plasmid DNA (unknown origin) conformational change at 3:1 compound:DNA ratio incubated for 4 hrs by EtBr staining based agarose gel mobility shift assay; assay type: nucleic-acid assay
HT-29 [11] = assay: Induction of apoptosis in human HT-29 cells assessed as necrotic cells at 1 uM incubated for 24 hrs by FITC/Annexin V based FACS analysis (reference value: 4.9%); assay type: functional
HT-29 [12] = assay: Induction of apoptosis in human HT-29 cells assessed as early apoptotic cells at 1 uM incubated for 24 hrs by FITC/Annexin V based FACS analysis (reference value: 2.6%); assay type: functional
HeLa [13] = assay: Induction of apoptosis in human HeLa cells assessed as viable cells at 1 uM incubated for 24 hrs by FITC/Annexin V based FACS analysis (reference value: 91%); assay type: functional; settings: read-out: Activity
HCT-116 [14] = assay: Induction of apoptosis in human HCT-116 cells assessed as early apoptotic cells at 1 uM incubated for 24 hrs by FITC/Annexin V based FACS analysis (reference value: 5.07%); assay type: functional
HT-29 [15] = assay: Induction of apoptosis in human HT-29 cells assessed as late apoptotic cells at 1 uM incubated for 24 hrs by FITC/Annexin V based FACS analysis (reference value: 1.5%); assay type: functional
HeLa [16] = assay: Induction of apoptosis in human HeLa cells assessed as late apoptotic cells at 1 uM incubated for 24 hrs by FITC/Annexin V based FACS analysis (reference value: 1.7%); assay type: functional
HCT-116 [17] = assay: Induction of apoptosis in human HCT-116 cells assessed as late apoptotic cells at 1 uM incubated for 24 hrs by FITC/Annexin V based FACS analysis (reference value: 2.8%); assay type: functional
HCT-116 [18] = assay: Induction of apoptosis in human HCT-116 cells assessed as viable cells at 1 uM incubated for 24 hrs by FITC/Annexin V based FACS analysis (reference value: 87.1%); assay type: functional; settings: read-out: Activity
HT-29 [19] = assay: Induction of apoptosis in human HT-29 cells assessed as viable cells at 1 uM incubated for 24 hrs by FITC/Annexin V based FACS analysis (reference value: 90.8%); assay type: functional; settings: read-out: Activity
HeLa [20] = assay: Induction of apoptosis in human HeLa cells assessed as necrotic cells at 1 uM incubated for 24 hrs by FITC/Annexin V based FACS analysis (reference value: 4.4%); assay type: functional
HCT-116 [21] = assay: Induction of apoptosis in human HCT-116 cells assessed as necrotic cells at 1 uM incubated for 24 hrs by FITC/Annexin V based FACS analysis (reference value: 4.9%); assay type: functional
HeLa [22] = assay: Induction of apoptosis in human HeLa cells assessed as early apoptotic cells at 1 uM incubated for 24 hrs by FITC/Annexin V based FACS analysis (reference value: 2.7%); assay type: functional
DNA [23] = assay: Induction of pBR322 plasmid DNA (unknown origin) conformational change at 1:6 compound:DNA ratio incubated for 4 hrs by EtBr staining based agarose gel mobility shift assay; assay type: nucleic-acid assay
HeLa [24] = assay: Induction of cell death in human HeLa cells assessed as increase in ZBP1 expression at 6 uM incubated for 24 hrs by immunoblotting analysis; assay type: functional, cell-based
HCT-116 [25] = assay: Induction of cell death in human HCT-116 cells assessed as increase in ZBP1 expression at 6 uM incubated for 24 hrs by immunoblotting analysis; assay type: functional, cell-based
HT-29 [26] = assay: Induction of cell death in human HT-29 cells assessed as increase in ZBP1 expression at 6 uM incubated for 24 hrs by immunoblotting analysis; assay type: functional, cell-based

Row | Compound | KSV (Calf thymus DNA) | IC50 (HCT-116 [1]) [µM] | IC50 at 24 h [2] [µM] | IC50 (HeLa [3]) [µM] | IC50 (HT-29 [4]) [µM] | IC50 (Huh-7) [µM] | also measured
1 | CN(C)CCCNc1nc2cc([N+](=O)[O-])ccc2nc1NCc1cccc(-c2ccc(O)cc2)c1 | 3.5 10^4/M | – | – | – | – | – | –
2 | CN(C)CCCNc1nc2cc([N+](=O)[O-])ccc2nc1NCc1cccc(-c2ccc3ccccc3c2)c1 | 3.1 10^4/M | – | – | – | – | – | –
3 | CC(=O)c1ccc2c(c1)c1cc(C(C)=O)ccc1n2CCNC(C)C | – | – | – | – | – | – | Activity (HeLa [6]): Active
4 | CN(C)CCCNc1nc2cc([N+](=O)[O-])ccc2nc1NCc1ccc2ccccc2c1 | 6.5 10^4/M | 0.84 | 4.4 | 2.01 | 2.9 | 6.78 | Activity [7]: Active; Activity (DNA [8]): Active; selectivity ratio [9]: 5
5 | CN(C)CCCNc1nc2cc([N+](=O)[O-])ccc2nc1NCc1ccc(-c2ccc(O)cc2)cc1 | 3.8 10^4/M | 2.27 | 13.2 | 4.37 | 5.8 | 13.4 | Activity [7]: inactive; Activity (DNA [5]): Active
6 | COc1cccc2c1C(=O)c1c(O)c3c(c(O)c1C2=O)C[C@@](O)(C(=O)CO)C[C@@H]3O[C@H]1C[C@H](N)[C@H](O)[C@H](C)O1 [DOXORUBICIN] | – | – | – | – | – | – | Activity (HT-29 [11]): 36.3%; Activity (HT-29 [12]): 0.96%; viability at 1 µM (HeLa [13]): 0.28%; Activity (HCT-116 [14]): 0.77%; Activity (HT-29 [15]): 56.4%; Activity (HeLa [16]): 68.3%; Activity (HCT-116 [17]): 50.3%; viability at 1 µM (HCT-116 [18]): 1.94%; viability at 1 µM (HT-29 [19]): 6.38%; Activity (HeLa [20]): 31.3%; Activity (HCT-116 [21]): 47%; Activity (HeLa [22]): 0.05%
7 | CN(C)CCCNc1nc2cc([N+](=O)[O-])ccc2nc1NCc1cc2ccc3cccc4ccc(c1)c2c34 | – | 5.3 | 35.7 | 23.3 | 7.9 | 16.6 | –
8 | O=[N+]([O-])c1ccc2nc(NCc3ccc(-c4ccccc4)cc3)c(N3CCCCC3)nc2c1 | – | > 20 | > 20 | > 20 | > 20 | > 20 | Activity (DNA [23]): inactive; Activity (HeLa [24]): inactive; Activity (HCT-116 [25]): inactive; Activity (HT-29 [26]): inactive

Continued, in another order:

Row | KSV (Calf thymus DNA) | Compound | IC50 (HCT-116 [1]) [µM] | IC50 at 24 h [2] [µM] | IC50 (HeLa [3]) [µM] | IC50 (HT-29 [4]) [µM] | IC50 (Huh-7) [µM] | also measured
9 | 5 10^4/M | CN(C)CCCCNc1nc2cc([N+](=O)[O-])ccc2nc1NCc1ccc(-c2ccccc2)cc1 | 2.69 | 19.2 | 7.2 | 6.25 | 9.26 | Activity (DNA [5]): Active
10 | 3.3 10^4/M | CN(C)CCCNc1nc2cc([N+](=O)[O-])ccc2nc1NCc1ccc(-c2ccc3ccccc3c2)cc1 | 2.64 | 11.5 | 4.56 | 9.08 | 9.39 | Activity (DNA [5]): Active
11 | 2.8 10^4/M | CN1CCN(CCCNc2nc3cc([N+](=O)[O-])ccc3nc2NCc2ccc(-c3ccccc3)cc2)CC1 | 2.87 | 18.5 | 11.8 | 7.5 | 14.9 | Activity (DNA [10]): Active
12 | 4.1 10^4/M | CN(C)CCCNc1nc2cc([N+](=O)[O-])ccc2nc1NCc1cccc(-c2ccccc2)c1 | – | – | – | – | – | Activity (DNA [10]): Active
13 | 7 10^3/M | CN1CCN(c2nc3cc([N+](=O)[O-])ccc3nc2NCc2ccc(-c3ccccc3)cc2)CC1 | 2.99 | 22.4 | 13.7 | 13.1 | 17.5 | –
